Our source for the EC50 values is US12534465B2, “5H-pyrrolo[3,2-d]pyrimidine-2,4-diamino compounds and antibody conjugates thereof” (SUTRO BIOPHARMA, INC., priority 2019, dated 2026).

Where only a bound is given, the exact number is not on record here.

Common to all, as to type: cell-based
One assay concerns the target T1, mouse TLR7 (Mus musculus, UniProt P58681).
T1 construct: host or cells: HEK293
T1 sequence (P58681 27-1050): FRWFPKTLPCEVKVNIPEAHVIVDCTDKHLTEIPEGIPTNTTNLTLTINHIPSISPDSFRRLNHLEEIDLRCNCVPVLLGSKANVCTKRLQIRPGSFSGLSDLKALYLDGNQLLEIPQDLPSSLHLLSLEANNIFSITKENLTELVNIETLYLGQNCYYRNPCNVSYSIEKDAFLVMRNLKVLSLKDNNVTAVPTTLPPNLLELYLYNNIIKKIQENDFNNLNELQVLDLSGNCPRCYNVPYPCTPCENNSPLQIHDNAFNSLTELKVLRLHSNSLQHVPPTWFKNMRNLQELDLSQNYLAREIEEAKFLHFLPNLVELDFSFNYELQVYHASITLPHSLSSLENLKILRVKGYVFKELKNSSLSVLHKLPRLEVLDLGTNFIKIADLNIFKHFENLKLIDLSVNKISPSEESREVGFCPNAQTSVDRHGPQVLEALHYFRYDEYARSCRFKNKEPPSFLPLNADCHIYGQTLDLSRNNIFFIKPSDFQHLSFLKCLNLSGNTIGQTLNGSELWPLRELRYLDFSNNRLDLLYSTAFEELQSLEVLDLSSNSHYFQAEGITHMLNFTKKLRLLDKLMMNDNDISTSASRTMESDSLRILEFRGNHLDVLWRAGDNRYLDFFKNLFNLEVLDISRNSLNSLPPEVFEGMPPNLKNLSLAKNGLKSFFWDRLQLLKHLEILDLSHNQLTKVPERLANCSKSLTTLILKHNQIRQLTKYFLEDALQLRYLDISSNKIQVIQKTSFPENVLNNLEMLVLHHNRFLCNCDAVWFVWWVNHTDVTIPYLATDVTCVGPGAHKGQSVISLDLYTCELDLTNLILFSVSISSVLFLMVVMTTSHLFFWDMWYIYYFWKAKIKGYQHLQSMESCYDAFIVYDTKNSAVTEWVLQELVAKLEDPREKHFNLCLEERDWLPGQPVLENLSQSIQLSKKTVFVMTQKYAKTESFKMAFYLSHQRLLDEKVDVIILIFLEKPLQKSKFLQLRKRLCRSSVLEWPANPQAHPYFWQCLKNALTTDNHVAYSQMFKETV
Briefly: HEK293-mouseTLR7 SEAP reporter assay (Example 8). Particulars: HEK293-mTLR7 SEAP reporter cells, 24 hrs. As for the experimental part: (§1) In this example, the in vitro activity of compounds to activate human TLR7 (or human TLR8 or mouse TLR7) pathway was evaluated on HEK293 reporter cells transfected with human TLR7 (or human TLR8 or mouse TLR7) and an inducible SEAP (secreted embryonic alkaline phosphatase) reporter gene. The SEAP reporter gene is placed under the control of the IFN-β minimal promoter fused to five NF-κB and AP-1-binding sites. Stimulation with a TLR7 agonist activates NF-κB and AP-1 which induces the production of SEAP. Levels of SEAP were determined by HEK-Blue Detection medium.
(§2) The in vitro activity of compounds on TLR7 (human and mouse) and TLR8 (human only) reporter cell lines was assessed as follows. 5-(2-methoxy-4-(piperazin-1-ylmethyl)benzyl)-N4-pentyl-5H-pyrrolo[3,2-d]pyrimidine-2,4-diamine (Compound 1) is a compound used for comparison and has the structure shown below:
(§3) HEK293-humanTLR7 (hTLR7), HEK293-mouseTLR7 (mTLR7) and HEK293-humanTLR8 (hTLR8) reporter cell lines were purchased from Invivogen and cell lines were maintained in the manufacturer's recommended culture medium with required supplemental antibiotics. On the day of assay, the cells were harvested with Accutase and counted by the Vi-CELL Cell Viability Analyzers. Cells were resuspended in HEK blue detection medium and a total of 10,000 cells were seeded in each well of a 384-well flat bottom plate. Serial dilutions of test compounds (1:4 serial dilution starting from 5 μM) were added into treatment wells and assay plates were cultured at 37° C. in a CO2 incubator for 24 hrs. The plates were then read by spectrophotometry at 640 nm. Data was fitted with non-linear regression analysis, using a log(inhibitor) vs. response-variable slope, 3-parameter fit with GraphPad Prism. There result was reported in Table 1 as EC50 (the midpoint of the curve, or concentration at which 50% of the maximum effect was observed).
(A reporter such as luciferase makes a cellular process visible.)

Another assay has as its target T2, human TLR8 (Homo sapiens, UniProt Q9NR97).
T2 construct: host or cells: HEK293
T2 sequence (Q9NR97 27-1041): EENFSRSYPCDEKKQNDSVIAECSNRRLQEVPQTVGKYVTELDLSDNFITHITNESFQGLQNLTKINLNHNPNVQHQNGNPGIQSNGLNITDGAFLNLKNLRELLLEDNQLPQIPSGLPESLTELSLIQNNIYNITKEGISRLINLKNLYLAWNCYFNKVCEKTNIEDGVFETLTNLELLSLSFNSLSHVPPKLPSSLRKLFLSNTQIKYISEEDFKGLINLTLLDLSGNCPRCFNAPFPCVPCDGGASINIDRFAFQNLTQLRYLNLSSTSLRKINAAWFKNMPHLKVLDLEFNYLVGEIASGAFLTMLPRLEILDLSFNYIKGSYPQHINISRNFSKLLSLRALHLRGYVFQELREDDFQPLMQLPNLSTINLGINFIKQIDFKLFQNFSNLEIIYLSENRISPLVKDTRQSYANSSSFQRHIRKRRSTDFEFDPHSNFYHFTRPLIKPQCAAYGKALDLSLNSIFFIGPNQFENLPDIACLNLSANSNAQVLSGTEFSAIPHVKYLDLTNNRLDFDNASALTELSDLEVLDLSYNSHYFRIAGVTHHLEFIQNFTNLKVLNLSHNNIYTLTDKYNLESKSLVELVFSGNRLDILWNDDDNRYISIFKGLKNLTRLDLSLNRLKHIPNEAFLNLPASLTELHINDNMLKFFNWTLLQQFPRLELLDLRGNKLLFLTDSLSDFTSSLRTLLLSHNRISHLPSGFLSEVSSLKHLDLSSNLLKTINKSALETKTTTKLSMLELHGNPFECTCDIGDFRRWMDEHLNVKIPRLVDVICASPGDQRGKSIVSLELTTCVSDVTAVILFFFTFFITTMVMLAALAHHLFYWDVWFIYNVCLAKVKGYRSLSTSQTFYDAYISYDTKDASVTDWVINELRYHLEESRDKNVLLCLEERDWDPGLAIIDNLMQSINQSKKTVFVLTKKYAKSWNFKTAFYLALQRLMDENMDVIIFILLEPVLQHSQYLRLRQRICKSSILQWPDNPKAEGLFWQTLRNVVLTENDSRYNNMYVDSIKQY
Kind of assay: HEK293-humanTLR8 SEAP reporter assay (Example 8). Particulars: HEK293-hTLR8 SEAP reporter cells, 24 hrs. As for the experimental part:
as §1, §2, §3

The target of another assay is T3, human TLR7 (Homo sapiens, UniProt Q9NYK1).
T3 construct: host or cells: HEK293
T3 sequence (Q9NYK1 27-1049): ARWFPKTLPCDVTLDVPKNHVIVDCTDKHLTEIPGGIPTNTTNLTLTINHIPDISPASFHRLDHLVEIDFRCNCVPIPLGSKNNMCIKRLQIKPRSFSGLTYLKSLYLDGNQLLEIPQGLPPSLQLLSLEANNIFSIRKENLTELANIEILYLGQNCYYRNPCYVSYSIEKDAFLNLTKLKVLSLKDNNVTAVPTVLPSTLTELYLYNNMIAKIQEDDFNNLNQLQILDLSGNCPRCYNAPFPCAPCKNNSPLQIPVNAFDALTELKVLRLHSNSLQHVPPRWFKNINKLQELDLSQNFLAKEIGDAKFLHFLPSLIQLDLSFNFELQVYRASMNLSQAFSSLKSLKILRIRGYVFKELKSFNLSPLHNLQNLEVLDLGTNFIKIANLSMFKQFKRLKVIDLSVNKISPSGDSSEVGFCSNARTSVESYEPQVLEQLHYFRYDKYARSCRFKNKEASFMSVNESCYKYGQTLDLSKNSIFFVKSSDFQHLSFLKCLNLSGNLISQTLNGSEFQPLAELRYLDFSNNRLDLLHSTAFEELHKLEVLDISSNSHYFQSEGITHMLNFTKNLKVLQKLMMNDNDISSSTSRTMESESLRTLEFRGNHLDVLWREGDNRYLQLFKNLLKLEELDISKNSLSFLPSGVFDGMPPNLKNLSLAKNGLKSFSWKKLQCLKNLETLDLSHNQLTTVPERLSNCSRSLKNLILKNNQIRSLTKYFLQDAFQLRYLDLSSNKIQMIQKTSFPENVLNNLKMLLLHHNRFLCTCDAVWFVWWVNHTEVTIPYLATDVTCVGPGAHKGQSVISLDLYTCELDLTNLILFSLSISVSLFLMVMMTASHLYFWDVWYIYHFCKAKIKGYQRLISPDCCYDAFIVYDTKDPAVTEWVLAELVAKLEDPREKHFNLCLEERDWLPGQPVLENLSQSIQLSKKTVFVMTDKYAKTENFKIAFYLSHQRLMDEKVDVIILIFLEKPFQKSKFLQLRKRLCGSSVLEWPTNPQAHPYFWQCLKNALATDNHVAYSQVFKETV
Kind of assay: HEK293-humanTLR7 SEAP reporter assay (Example 8). Particulars: HEK293-hTLR7 SEAP reporter cells, 24 hrs. As for the experimental part:
as §1, §2, §3

What is called EC50 is the midpoint of the concentration-response curve. In the case of `CCCCCNc1nc(N)nc2ccn(Cc3ccc(CN4CC5(C4)CN(C(=O)OC(C)(C)C)CCO5)cc3OC)c12` [Compound 1.7, tert-butyl 2-[[4-[[2-amino-4-(pentylamino)pyrrolo[3,2-d]pyrimidin-5-yl]methyl]-3-methoxy-phenyl]methyl]-5-oxa-2,8-diazaspiro[3.5]nonane-8-carboxylate], the 50% effective concentration (EC50) is 0.0067 µM on mouse TLR7, more than 5 µM on human TLR8 and 0.0001 µM on human TLR7.

As for `CNC1CN(Cc2ccc(Cn3ccc4nc(N)nc(NCc5nocc5C)c43)c(OC)c2)C1` [Compound 5], the EC50 at human TLR8 is more than 5 µM; on human TLR7, 1.01 µM.

Regarding `CNC1CN(Cc2ccc(Cn3ccc4nc(N)nc(NCc5cc(C)on5)c43)c(OC)c2)C1` [Compound 6, 5-(2-methoxy-4-((3-(methylamino)azetidin-1-yl)methyl)benzyl)-N4-((5-methylisoxazol-3-yl)methyl)-5H-pyrrolo[3,2-d]pyrimidine-2,4-diamine], the concentration for a half-maximal effect (EC50) on mouse TLR7, on human TLR8 and on human TLR7 was more than 5 µM in each case.

As for `CCCCCNc1nc(N)nc2ccn(Cc3ccc(CN4CC(N)C4)cc3OC)c12` [Compound 13, 5-(4-((3-aminoazetidin-1-yl)methyl)-2-methoxybenzyl)-N4-pentyl-5H-pyrrolo[3,2-d]pyrimidine-2,4-diamine], the EC50 at mouse TLR7 was 0.0027 µM; at human TLR8, 0.374 µM; on human TLR7, 0.0005 µM.

Take `CCCCCNc1nc(N)nc2ccn(Cc3ccc(CN4CCC5(CCNCC5)CC4)cc3OC)c12` [compound 7]: the EC50 on mouse TLR7 is 0.112 µM; on human TLR8, more than 5 µM; on human TLR7 it was 0.0488 µM.

On to `CCCCCNc1nc(N)nc2ccn(Cc3ccc(CN4CC5(CCNCC5)C4)cc3OC)c12` [compound 8], for which the values for the EC50 on mouse TLR7, on human TLR8 and at human TLR7 were 0.0176 µM, more than 5 µM and 0.0165 µM, respectively.

In the case of `CCCCCNc1nc(N)nc2ccn(Cc3ccc(CN4CC5(CNC5)C4)cc3OC)c12` [compound 9], the EC50 came to 0.0162 µM at mouse TLR7, 1.14 µM on human TLR8 and 0.0134 µM at human TLR7.

`CCCCCNc1nc(N)nc2ccn(Cc3ccc(CN4CC(C5CCNCC5)C4)cc3OC)c12` [compound 11]: the concentration for a half-maximal effect (EC50) was 0.222 µM on mouse TLR7, more than 5 µM at human TLR8 and 0.0923 µM at human TLR7.

On to `CCCCCNc1nc(N)nc2ccn(Cc3ccc(CN4CCC(c5nnc6n5CCNC6)CC4)cc3OC)c12` [compound 12], for which the EC50 was more than 5 µM at human TLR8 and 0.37 µM at human TLR7.

For the molecule `CCCCCNc1nc(N)nc2ccn(Cc3ccc(CN4CC5CCCC(C4)NC5)cc3OC)c12` (stereo not shown) [compound 14], the EC50 on mouse TLR7 is 0.322 µM; on human TLR8 it was more than 5 µM; at human TLR7, 0.108 µM.

Turning to `CCCCCNc1nc(N)nc2ccn(Cc3ccc(CN4CC5CCC4CN5)cc3OC)c12` (stereo not shown) [compound 15], the EC50 at mouse TLR7 was 0.0246 µM; on human TLR8, more than 5 µM; at human TLR7, 0.0048 µM.
